Tests used:
[1] = test system: acute, orchiectomized (ORX) rabbit model; test: Tear fatty acid composition (palmitate:stearate ratio) after Compound 2 or TP, Example 3; assay type: in vivo; conditions: ORX rabbits
From the text: The goal of this study was to compare the effect of Compound 2 to testosterone propionate (TP) on tear composition in an acute, orchiectomized (ORX) rabbit model.
Fifteen New Zealand white rabbits weighing approximately 3 lbs were allowed to acclimate for 4 weeks before the start of the study. Animals were weighed on day 0 of the study, randomized according to body weight and allotted to the following dose groups:
Pre-dose tear and blood samples were collected. Animals from groups 2-5 were to premedicated with glycopyrrolate (0.02 mg/kg) and then anesthesia was induced with a combination of ketamine (15 mg/kg): medetomidine (0.25 mg/kg).
Anesthesia was maintained with isoflurane (1 liter/hr). Orchiectomy was performed using a scrotal incision. Animals were revived from anesthesia using atipamezole (1 mg/kg) SQ. Analgesia was provided with buprenorphine (0.05 mg/kg) Immediately after the animals had recovered from anesthesia, they received their first dose with the appropriate test articles as indicated above.
Drug dosing was done once daily for 14 days. Blood was collected at 60 minutes post administration of the last dose of drug and plasma separated for HPLC analysis of parent drug concentrations.
Tears were collected using Schirmer tear strips (Alcon, Tex.) on day 0 before surgery, 24 hours after the last administration of drug (day 15) and also at 42 days (6 weeks after start of study). The tears were stored at −80° C. prior to lipid analysis.
Lipids were hydrolyzed, extracted from the Schirmer strips, derivatized, and subjected to gas chromatography with flame ionization detector (GCFID) to evaluate the lipid composition.
The samples were evaluated for the presence of 28 saturated and unsaturated fatty acids that included methyl caprate (C10:0), methyl laurate (C12:0), methyl 11-dodecenoate (C12:1), methyl myristate (C14:0), methyl myristoleate (C14:1), methyl palmitate (C16:0), methyl palmitoleate (C16:1), methyl stearate (C18:0), methyl oleate (C18:1), methyl vaccenate (C18:1), methyl linoleate (C18:2), methyl gamma linoleate (C18:3), methyl linoleate (C18:3), methyl arachidate (C20:0), methyl 11-eicosenoate (C20:1), methyl 11,14 eicosadinoate (C20:2), methyl 8,11,14 eicosatrienoate (C20:3), methyl eicosapentaenoate (C20:5), methyl behenate (C22:0), methyl erucate (C22:1), methyl 13,16 docosaenoate (C22:2), methyl docosatetraenoate (C22:4), methyl docosapentaenoate (C22:5), methyl docosahexaenoate (C22:6), methyl lignocerate (C24:0), and methyl nervonate (C24:1).
The area under the curve for each individual peak was determined using GC ChemStation software. […] These samples were then washed with a saturated solution of NaCl+0.1% formic acid (FA). […] These samples were all in the predose tear group. Two more samples from the predose group and one sample from Vehicle Intact treated group had small but clear and well to separated peaks that were included in the analysis.
To normalize for the tear content, the lipid composition was expressed as a ratio of the lipid that was most affected by castration (palmitate) to one which remained relatively constant (stearate). Blood was also collected on day 15 (24 hours after last drug administration) of the study, plasma separated and analyzed for Compound 2.
The last dose of drug or vehicle was administered on day 15 of the study Animals were left untreated for 4 weeks (washout period) before tear samples were collected again on Schirmer tear strips and analyzed as indicated above.

[2] = test system: Meibomian gland secretions of rabbits; conditions: cited from earlier work

Row | SMILES | Increase of tear palmitate:stearate ratio relative to intact animals ([1]; 2.5 mg/kg, 14 days) | Tear palmitate:stearate ratio after 4 week washout ([1]; SQ 2.5 mg/kg for two weeks, then untreated 4 weeks) | Effect on fatty acid profile in total and neutral lipid fractions of Meibomian gland secretions [2]
1 | CCC(=O)O[C@H]1CC[C@H]2[C@@H]3CCC4=CC(=O)CC[C@]4(C)[C@H]3CC[C@]12C [TP, testosterone propionate, reference compound] | two times that of intact animals | 1.67±0.17 | 
2 | C[C@]12CC[C@H]3[C@@H](CCC4=CC(=O)CC[C@@H]43)[C@@H]1CC[C@@H]2O [19-nortestosterone] |  |  | modulated the fatty acid profile

Source: patent US8791158B2, “Methods of treating meibomian gland dysfunction” (GTX, Inc., priority 2010, dated 2014)
